Measured values as given in US9737505B2, “Prodrug of 1,1′-(1,6-dioxo-1,6-hexanediyl)bis-D-proline” (GlaxoSmithKline Intellectual Property Development Limited, priority 2014, dated 2017).
pIC50: −log10 of the molar value. Like-named read-outs stand apart in the source and are kept apart here.

Columns and labels:
[1] = molecular target: T1, SAP (Homo sapiens, UniProt P02743); settings: systemic amyloidosis patients, for as long as the drug was administered; cited from earlier work
T1 construct: Depletion of plasma SAP by CPHPC, from the normal 20-50 mg/L to <0.1 mg/L; host or cells: circulating SAP in plasma and CSF of patients

[2] = molecular target: T1, SAP; settings: patients with Alzheimer's disease, cited from earlier work
[3] = very low and variable; cited from earlier work
[4] = molecular target: T2, CYP1A2 (Homo sapiens, UniProt P05177); assay: Cytochrome p450 inhibition assay (bactosomes, fluorogenic substrate ER); type: biochemical; settings: recombinant human CYP (Cypex bactosomes)
T2 construct: purchased Cypex; host or cells: bactosomes (bacterial membranes)
T2 sequence (P05177 1-516): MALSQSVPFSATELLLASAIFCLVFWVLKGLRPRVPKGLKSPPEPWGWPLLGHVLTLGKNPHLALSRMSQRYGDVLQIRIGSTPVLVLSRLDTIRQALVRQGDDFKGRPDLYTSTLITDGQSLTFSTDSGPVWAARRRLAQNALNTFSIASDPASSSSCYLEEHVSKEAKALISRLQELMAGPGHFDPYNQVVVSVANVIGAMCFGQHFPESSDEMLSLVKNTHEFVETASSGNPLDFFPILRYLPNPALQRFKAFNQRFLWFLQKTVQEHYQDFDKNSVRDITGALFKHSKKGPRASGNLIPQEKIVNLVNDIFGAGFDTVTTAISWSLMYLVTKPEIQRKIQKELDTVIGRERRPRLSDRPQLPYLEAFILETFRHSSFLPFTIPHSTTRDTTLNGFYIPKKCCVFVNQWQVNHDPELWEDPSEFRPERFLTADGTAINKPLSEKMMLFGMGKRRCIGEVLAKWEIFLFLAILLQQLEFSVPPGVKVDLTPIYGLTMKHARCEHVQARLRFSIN
Experimental: (§1) The assay was designed to evaluate inhibition on cytochrome P450 (CYP) 3A4, 2C9, 2C19, 1A2 and 2D6 enzymes from bactosomes source using fluorogenic substrates. Compound (compound of Formula (I) or Comparator Compound) was dissolved in methanol at 1.65 mM. Daughter solutions were prepared in methanol at 660, 264, 106, 42, 17, 6.8, 2.7, 1.1 and 0.43 μM. NADPH cofactor was prepared with Glucose-6-phosphate (7.8 mg), Glucose-6-phosphate dehydrogenase (6 units), NADP (1.7 mg) per 1 mL in NaHCO3 2%. Substrate preparation was as follows: • 7-Methoxy-4-triFluoromethyl Coumarin-3-Acetic acid ethyl ester (FCA): 12.5 mM in acetonitrile • EthoxyResorufin (ER): 0.05 mM in acetonitrile • 4-MethylaminoMethyl-7-Methoxy Coumarin (MMC): 2.5 mM in methanol • 3-Butyryl-7Methoxy Coumarin (BMC): 2.5 mM in DMSO • 7-BenzyloxyQuinoline (7BQ): 2.5 mM in acetonitrile • DiEthoxyFluorescein (DEF): 0.1 mM in acetonitrile Bactosomes (Cypex source) at the concentration of 10 mg of protein per ml were diluted in phosphate buffer 50 mM pH7.4: • 0.33 ml of bactosomes CYP2C9 with 23.8 ml of buffer and 0.11 ml of FCA • 0.33 ml of bactosomes CYP1A2 with 23.6 ml of buffer and 0.275 ml of ER • 0.33 ml of bactosomes CYP2D6 with 23.8 ml of buffer and 0.11 ml of MMC • 0.33 ml of bactosomes CYP2C19 with 23.8 ml of buffer and 0.11 ml of BMC • 0.33 ml of bactosomes CYP3[…] with 23.6 ml of buffer and 0.275 ml of 7BQ • 0.33 ml of bactosomes CYP3[…] with 23.6 ml of buffer and 0.275 ml of DEF Pre-Incubation consisted in mixing 5 μl of compound solution with 220 μl diluted bactosomes and warming it at 37° C. for 10 min. Incubation was started with the addition of 25 μl of NADPH. […]

[5] = molecular target: T3, CYP2C19 (Homo sapiens, UniProt P33261); assay: Cytochrome p450 inhibition assay (bactosomes, fluorogenic substrate BMC); type: biochemical; settings: recombinant human CYP (Cypex bactosomes)
T3 construct: purchased Cypex; host or cells: bactosomes (bacterial membranes)
Experimental: as §1

[6] = molecular target: T4, CYP2D6 (Homo sapiens, UniProt P10635); assay: Cytochrome p450 inhibition assay (bactosomes, fluorogenic substrate MMC); type: biochemical; settings: recombinant human CYP (Cypex bactosomes)
T4 construct: purchased Cypex; host or cells: bactosomes (bacterial membranes)
Experimental: as §1

[7] = molecular target: T5, CYP3A4 (Homo sapiens, UniProt P08684); assay: Cytochrome p450 inhibition assay (bactosomes, fluorogenic substrates 7BQ and DEF); type: biochemical; settings: recombinant human CYP (Cypex bactosomes)
T5 construct: purchased Cypex; host or cells: bactosomes (bacterial membranes)
Experimental: The assay was designed to evaluate inhibition on cytochrome P450 (CYP) 3A4, 2C9, 2C19, 1A2 and 2D6 enzymes from bactosomes source using fluorogenic substrates. Compound (compound of Formula (I) or Comparator Compound) was dissolved in methanol at 1.65 mM. Daughter solutions were prepared in methanol at 660, 264, 106, 42, 17, 6.8, 2.7, 1.1 and 0.43 μM. NADPH cofactor was prepared with Glucose-6-phosphate (7.8 mg), Glucose-6-phosphate dehydrogenase (6 units), NADP (1.7 mg) per 1 mL in NaHCO3 2%. Substrate preparation was as follows: • 7-Methoxy-4-triFluoromethyl Coumarin-3-Acetic acid ethyl ester (FCA): 12.5 mM in acetonitrile • EthoxyResorufin (ER): 0.05 mM in acetonitrile • 4-MethylaminoMethyl-7-Methoxy Coumarin (MMC): 2.5 mM in methanol • 3-Butyryl-7Methoxy Coumarin (BMC): 2.5 mM in DMSO • 7-BenzyloxyQuinoline (7BQ): 2.5 mM in acetonitrile • DiEthoxyFluorescein (DEF): 0.1 mM in acetonitrile Bactosomes (Cypex source) at the concentration of 10 mg of protein per ml were diluted in phosphate buffer 50 mM pH7.4: • 0.33 ml of bactosomes CYP2C9 with 23.8 ml of buffer and 0.11 ml of FCA • 0.33 ml of bactosomes CYP1A2 with 23.6 ml of buffer and 0.275 ml of ER • 0.33 ml of bactosomes CYP2D6 with 23.8 ml of buffer and 0.11 ml of MMC • 0.33 ml of bactosomes CYP2C19 with 23.8 ml of buffer and 0.11 ml of BMC • 0.33 ml of bactosomes CYP3[…] with 23.6 ml of buffer and 0.275 ml of 7BQ • 0.33 ml of bactosomes CYP3[…] with 23.6 ml of buffer and 0.275 ml of DEF Pre-Incubation consisted in mixing 5 μl of compound solution with 220 μl diluted bactosomes and warming it at 37° C. for 10 min. Incubation was started with the addition of 25 μl of NADPH. Then fluorescence of substrate metabolite was read in a SAFIRE instrument (from Tecan) for 5 min: • FCA (2C9): Excitation at 410 nm and Emission at 510 nm • ER (1A2): Excitation at 530 nm and Emission at 590 nm • MMC (2D6): Excitation at 410 nm and Emission at 485 nm • BMC (2C19): Excitation at 410 nm and Emission at 465 nm • 7BQ (3A4H): Excitation at 410 nm and Emission at 530 nm • DEF (3A4L): Excitation at 485 nm and Emission at 530 nm Plotting of inhibition of substrate production against compound concentration allowed the determination of IC50 values.

[8] = molecular target: T6, CYP2C9 (Homo sapiens, UniProt P11712); assay: Cytochrome p450 inhibition assay (bactosomes, fluorogenic substrate FCA); type: biochemical; settings: recombinant human CYP (Cypex bactosomes)
T6 construct: purchased Cypex; host or cells: bactosomes (bacterial membranes)
Experimental: as §1

T1 sequence (P02743 20-223): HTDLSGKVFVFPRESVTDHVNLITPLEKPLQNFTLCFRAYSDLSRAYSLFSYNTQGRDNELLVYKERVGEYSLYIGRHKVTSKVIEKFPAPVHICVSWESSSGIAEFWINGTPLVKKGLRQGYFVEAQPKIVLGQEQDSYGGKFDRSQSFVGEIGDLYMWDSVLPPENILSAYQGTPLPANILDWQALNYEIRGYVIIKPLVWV
T5 sequence (P08684 whole entry): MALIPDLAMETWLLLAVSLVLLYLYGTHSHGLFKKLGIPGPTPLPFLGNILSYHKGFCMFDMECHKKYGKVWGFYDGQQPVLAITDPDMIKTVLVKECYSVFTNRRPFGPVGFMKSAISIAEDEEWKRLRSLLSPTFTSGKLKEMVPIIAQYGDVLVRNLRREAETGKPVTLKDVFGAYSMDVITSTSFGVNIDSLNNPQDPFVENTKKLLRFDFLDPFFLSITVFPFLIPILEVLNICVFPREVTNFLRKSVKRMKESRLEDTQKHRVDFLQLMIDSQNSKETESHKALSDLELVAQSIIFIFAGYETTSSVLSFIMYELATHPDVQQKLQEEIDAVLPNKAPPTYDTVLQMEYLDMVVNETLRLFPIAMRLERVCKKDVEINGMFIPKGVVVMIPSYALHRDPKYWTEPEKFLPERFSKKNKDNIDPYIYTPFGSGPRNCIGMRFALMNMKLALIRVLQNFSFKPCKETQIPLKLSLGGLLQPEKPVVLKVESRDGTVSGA
T3 sequence (P33261 whole entry): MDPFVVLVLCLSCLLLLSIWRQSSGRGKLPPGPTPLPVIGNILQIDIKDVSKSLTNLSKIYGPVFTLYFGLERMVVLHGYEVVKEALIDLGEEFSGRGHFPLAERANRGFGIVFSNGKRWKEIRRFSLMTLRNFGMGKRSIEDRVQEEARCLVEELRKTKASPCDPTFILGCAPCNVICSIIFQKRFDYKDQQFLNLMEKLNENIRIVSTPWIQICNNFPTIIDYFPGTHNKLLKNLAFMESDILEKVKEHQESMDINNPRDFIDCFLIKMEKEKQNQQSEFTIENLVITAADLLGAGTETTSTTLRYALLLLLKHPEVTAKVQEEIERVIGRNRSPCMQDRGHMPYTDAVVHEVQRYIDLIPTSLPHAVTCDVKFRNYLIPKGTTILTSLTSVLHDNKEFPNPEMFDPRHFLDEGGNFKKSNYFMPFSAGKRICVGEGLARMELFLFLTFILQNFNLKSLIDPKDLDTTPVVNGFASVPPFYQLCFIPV
T4 sequence (P10635 whole entry): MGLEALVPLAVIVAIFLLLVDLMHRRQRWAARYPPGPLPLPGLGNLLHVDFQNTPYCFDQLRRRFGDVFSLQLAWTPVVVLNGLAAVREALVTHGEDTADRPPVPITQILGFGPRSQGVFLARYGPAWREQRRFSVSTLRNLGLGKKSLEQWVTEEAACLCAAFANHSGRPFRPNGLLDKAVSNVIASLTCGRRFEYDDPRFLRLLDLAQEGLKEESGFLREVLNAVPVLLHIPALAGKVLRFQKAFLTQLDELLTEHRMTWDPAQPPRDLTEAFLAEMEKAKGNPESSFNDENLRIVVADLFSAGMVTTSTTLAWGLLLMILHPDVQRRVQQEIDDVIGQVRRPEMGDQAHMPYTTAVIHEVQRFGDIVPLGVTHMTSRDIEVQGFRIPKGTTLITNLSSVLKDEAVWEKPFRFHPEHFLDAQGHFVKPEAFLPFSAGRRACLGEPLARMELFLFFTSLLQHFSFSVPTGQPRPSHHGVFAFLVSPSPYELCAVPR
T6 sequence (P11712 whole entry): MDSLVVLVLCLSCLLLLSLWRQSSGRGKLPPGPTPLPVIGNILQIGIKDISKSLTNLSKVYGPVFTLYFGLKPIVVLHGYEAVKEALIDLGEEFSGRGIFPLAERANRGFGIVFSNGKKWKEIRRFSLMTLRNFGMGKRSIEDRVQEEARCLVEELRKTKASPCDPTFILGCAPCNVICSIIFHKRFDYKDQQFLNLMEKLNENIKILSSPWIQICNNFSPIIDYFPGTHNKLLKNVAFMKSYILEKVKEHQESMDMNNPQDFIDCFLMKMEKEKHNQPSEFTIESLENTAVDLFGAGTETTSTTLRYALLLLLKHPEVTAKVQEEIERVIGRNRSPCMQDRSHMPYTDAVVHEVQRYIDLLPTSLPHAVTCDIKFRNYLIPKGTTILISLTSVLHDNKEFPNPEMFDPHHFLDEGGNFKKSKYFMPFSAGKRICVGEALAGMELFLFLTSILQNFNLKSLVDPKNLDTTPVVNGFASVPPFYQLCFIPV

pIC50 [4] | pIC50 [5] | pIC50 [6] | IC50 CYP3A4 (7BQ) ([7]; substrate 7BQ) | pIC50 ([7]; substrate 7BQ, read-out: IC50 CYP3A4 (7BQ)) | IC50 CYP3A4 (DEF) ([7]; substrate DEF) | pIC50 ([7]; substrate DEF, read-out: IC50 CYP3A4 (DEF)) | pIC50 [8] | Structure (SMILES) | Depletion of circulating SAP [1] | CSF SAP concentration after depletion ([2]; from 2-30 μg/L) [µg/L] | Plasma SAP after depletion ([2]; from the normal 20-50 mg/L) [mg/L] | Oral bioavailability [3]
 |  |  |  |  |  |  |  | O=C(O)[C@H]1CCCN1C(=O)CCCCC(=O)N1CCC[C@@H]1C(=O)O [CPHPC, (R)-1-[6-[(R)-2-carboxy-pyrrolidin-1-yl]-6-oxo-hexanoyl]pyrrolidine-2-carboxylic acid] | almost complete depletion | < 0.1 | < 0.1 | 3-5%
< 4.48 | < 4.48 | < 4.48 | significant inhibition | 5.26 | significant inhibition | 5.96 | 4.59 | CC(OC(=O)[C@H]1CCCN1C(=O)CCCCC(=O)N1CCC[C@@H]1C(=O)OC(C)OC(=O)C(C)(C)C)OC(=O)C(C)(C)C (stereo partly drawn) [Comparator Compound, (2R,2′R)-bis(1-(pivaloyloxy)ethyl) 1,1′-adipoylbis(pyrrolidine-2-carboxylate), reference compound] |  |  |  | 
